{
  "source": "patent US20160207970A1",
  "about": "“POLYPEPTIDE FOR THE PROTECTION AGAINST HEART ISCHEMIA-REPERFUSION INJURY” (Pharis Biotech GmbH, priority 2011, published 2016)",
  "key": {"[1]": {"system": "in vitro rat heart", "settings": "cited from earlier work"}, "[2]": {"system": "isolated, retrogradely perfused rat hearts", "assay": "Global ischemia (35 min)-reperfusion (120 min) in isolated, retrogradely perfused (Langendorff) rat hearts; peptide postconditioning", "settings": "for Infarct size (% IS/AAR): 15 min at onset of reperfusion; for LVD AUC / LVD-lowering effect in the presence of exendin(9-39): N-Ac-GLP-1(7-34)amide 0.3 nM + exendin(9-39) 3 nM versus control ischemia; for Left ventricle developed pressure (LVDEV) AUC / Rate-pressure product (RPP) AUC / Left ventricle diastolic pressure (LVD) AUC over last 60 min of reperfusion / post-ischemic diastolic contracture: postconditioning 0.3 nM versus control ischemia", "experimental": "Global ischemia (35 min)-reperfusion (120 min) was applied in isolated, retrogradely perfused rat hearts. Peptides were present for 15 min at the onset of reperfusion. Cardiac function parameters (beats per minute, left ventricle developed and diastolic pressures, rate-pressure product) throughout the course of the perfusion were measured. Infarct size was determined on collected hearts by 2,3,5-tripehyltetrazolium chloride staining and planimetry.\n(§1) For anesthesia, a mixture of midazolam (2.5 mg/kg), fluanisone (2.5 mg/kg) and fentanyl citrate (0.08 mg/kg) was administered subcutaneously. Heparin ([…]. per kg) was administered through the femoral vein. The animals were ventilated via a tracheotomy with a mixture of 35% O2/65% N2 and the chest cavity was opened. The excised heart was immediately placed in an ice-cold Krebs Henseleit buffer. The heart was quickly mounted onto the Langendorff perfusion system (ADInstruments, UK) and perfused with modified Krebs-Henseleit solution (NaCl 118.5 mM, KCl 4.7 mM, NaHCO3 25.0 mM, MgSO4 1.2 mM, CaCl2 1.4 mM, glucose 11.1 mM), equilibrated to pH 7.4 with a gas mixture of 5% CO2/95% 02, at 37° C. The left auricle was removed and a size 7 balloon (ADInstruments) was inserted into the left ventricle through the left atrium and adjusted to a diastolic pressure of 4-10 mmHg. Perfusion pressure was set to 70 mm Hg and maintained at this average value by a servo control system (ML175 STH Pump Controller, ADInstruments) continually adjusting the peristaltic pump revolutions according to flow resistance. The hearts were allowed to stabilize for 20 min prior to recording of left ventricle functional parameter baseline values over the next 10 min: pressure (systolic, LVS; diastolic, LVD; developed, LVDEV=LVS-LVD), beats per minute (BPM) and rate-pressure product (RPP). Power Lab 8/30 system and Chart 5 Pro Software from ADInstruments were used for these recordings.\n(§2) Hearts were also excluded if ventricular fibrillation lasting more than 5 min occurred during reperfusion.\nFIG. 1 outlines the time course for normoxic (A) and ischemia-reperfusion (B) experiments. The experimental groups were: control normoxia, no peptide addition; normoxia, N—Ac-GLP-1(7-34)amide 0.3 nM; control ischemia-reperfusion (IR), no peptide addition; IR, N—Ac-GLP-1(7-34)amide 0.3 nM; IR, N—Ac-GLP-1(7-34)amide 0.3 nM+exendin(9-39) 3 nM; IR, exendin(9-39) 3 nM. […] “Stab” indicates 30 min stabilization period. When present, peptides were added for 15 min, from the beginning of the last 120 min of perfusion (A) or reperfusion (B). Total perfusion time was always 185 min, consisting of 30 min stabilization, followed by 155 min of normoxic perfusion (FIG. 1A) or 35 min global ischemia-120 min reperfusion (FIG. 1B).\nFollowing reperfusion, the hearts were processed for 2, 3, 5-triphenyltetrazolium chloride staining and planimetric infarct size determination, as described earlier. Quantitation was done by an investigator blinded to the experimental conditions. Infarct size (IS) was expressed as a percentage of total ischemic area at risk (AAR) (% IS/AAR).\nAll values are presented as means, with SEM given in parantheses. One-way ANOVA with Dunnett's post hoc test (GraphPad Prism® 5) was used to compare treatment results to control conditions. P<0.05 was considered significant."}, "[3]": {"system": "isolated, retrogradely perfused rat hearts", "assay": "Normoxic perfusion of isolated rat hearts (no preceding ischemia)", "settings": "0.3 nM between 35 and 50 min of perfusion", "experimental": "as §1, §2\nFIG. 1 outlines the time course for normoxic (A) and ischemia-reperfusion (B) experiments. The experimental groups were: control normoxia, no peptide addition; normoxia, N—Ac-GLP-1(7-34)amide 0.3 nM; control ischemia-reperfusion (IR), no peptide addition; IR, N—Ac-GLP-1(7-34)amide 0.3 nM; IR, N—Ac-GLP-1(7-34)amide 0.3 nM+exendin(9-39) 3 nM; IR, exendin(9-39) 3 nM. […] “Stab” indicates 30 min stabilization period. […]"}, "[4]": {"settings": "listed as N—Ac-GLP-1(7-34)-amide"}, "[5]": {"settings": "listed as N—Ac-GLP-1-(7-34)amide"}},
  "note": "“Also recorded” adds a separate entry of the source. Like-named read-outs stand apart in the source and are kept apart here. Where no end group is shown, it is not given here.",
  "data": [
    {"substance": "exendin(9-39) [reference compound]", "values": [
      {"measurement": "Effect on infarct-limiting actions of GLP-1", "setting": "[1]; exendin(9-39) given with GLP-1", "result": "abolish"},
      {"measurement": "LVD AUC over last 60 min of reperfusion", "setting": "[2]; exendin(9-39) 3 nM alone versus control ischemia", "result": "not affected"},
      {"measurement": "Infarct size (% IS/AAR)", "setting": "[2]; exendin(9-39) 3 nM alone, mean", "result": 21.7, "unit": "%"}
    ]},
    {"substance": "N—Ac-GLP-1(7-34)amide (Ac-HAEGTFTSDVSSYLEGQAAKEFIAWLVK-NH2) [N-terminally acetylated, C-terminally truncated analogue of GLP-1]", "values": [
      {"measurement": "Functional heart parameters (BPM, LVDEV, LVD, RPP) under normoxic perfusion", "setting": "[3]", "result": "not affected"},
      {"measurement": "Functional heart parameters (BPM, LVDEV, LVD, RPP) under normoxic perfusion", "setting": "[3]; [4]", "result": "nor did it affect"},
      {"measurement": "Functional heart parameters (BPM, LVDEV, LVD, RPP) under normoxic perfusion", "setting": "[3]; [5]", "result": "No effect"},
      {"measurement": "Trend towards LVDEV improvement in the presence of exendin(9-39)", "setting": "[2]; N-Ac-GLP-1(7-34)amide 0.3 nM + exendin(9-39) 3 nM", "result": "abolished"},
      {"measurement": "LVD AUC / LVD-lowering effect in the presence of exendin(9-39)", "setting": "[2]", "result": "blocked"},
      {"measurement": "LVD AUC / LVD-lowering effect in the presence of exendin(9-39)", "setting": "[2]; [5]", "result": "not affected"},
      {"measurement": "Infarct size (% IS/AAR)", "setting": "[2]; N-Ac-GLP-1(7-34)amide 0.3 nM in the presence of exendin(9-39) 3 nM, mean", "result": 21.4, "unit": "%"},
      {"measurement": "Infarct size-limiting action in the presence of GLP-1 receptor antagonist exendin(9-39)", "setting": "[2]; co-administration of exendin(9-39) 3 nM", "result": "abolished"},
      {"measurement": "Infarct size (IS) as percentage of area at risk (% IS/AAR)", "setting": "[2]; peptide 0.3 nM for 15 min at onset of reperfusion, mean, control ischemia-reperfusion without peptide 24.8% / 28.4%", "result": 11.4, "unit": "%"},
      {"measurement": "Left ventricle developed pressure (LVDEV) AUC", "setting": "[2]", "result": "did not affect"},
      {"measurement": "Rate-pressure product (RPP) AUC", "setting": "[2]", "result": "did not affect"},
      {"measurement": "Left ventricle diastolic pressure (LVD) AUC over last 60 min of reperfusion / post-ischemic diastolic contracture", "setting": "[2]; P<0.05", "result": "diminished diastolic hypercontracture; also recorded: significant decrease"},
      {"measurement": "Left ventricle diastolic pressure (LVD) AUC over last 60 min of reperfusion / post-ischemic diastolic contracture", "setting": "[2]; P<0.05, listed as N—Ac-GLP-1(7-34)-amide", "result": "diminished significantly"},
      {"measurement": "Left ventricle diastolic pressure (LVD) AUC over last 60 min of reperfusion / post-ischemic diastolic contracture", "setting": "[2]; P<0.05, listed as N—Ac-GLP-1-(7-34)amide", "result": "significantly decreased"},
      {"measurement": "Relative decrease in infarct size", "setting": "[2]; postconditioning 0.3 nM versus control ischemia-reperfusion", "result": "approximately 54%"},
      {"measurement": "Left ventricle developed pressure (LVDEV) AUC", "setting": "[2]; [4]", "result": "no significant effect"},
      {"measurement": "Rate-pressure product (RPP) AUC", "setting": "[2]; [4]", "result": "no significant effect"},
      {"measurement": "Left ventricle developed pressure (LVDEV) AUC", "setting": "[2]; [5]", "result": "did not increase"},
      {"measurement": "Rate-pressure product (RPP) AUC", "setting": "[2]; [5]", "result": "did not increase"},
      {"measurement": "Effect on infarct size (in words)", "setting": "[2]; postconditioning 0.3 nM versus no peptide, P<0.05", "result": "diminished infarct size; also recorded: significant decrease"}
    ]},
    {"substance": "GLP-1 (HAEGTFTSDVSSYLEGQAAKEFIAWLVKGR; ends and bridges not checked; UniProt P01275 98-127, looked up) [natural hormone GLP-1]", "values": [
      {"measurement": "Effect on myocardial infarction", "setting": "[1]; GLP-1 alone", "result": "did not decrease"},
      {"measurement": "Effect on myocardial infarction", "setting": "[1]; GLP-1 in combination with the GLP-1 breakdown inhibitor valine pyrrolidide (VP)", "result": "significant reduction"}
    ]}
  ]
}
